Test results from US20220408724A1, “METHOD FOR CONTROLLING METABOLISM OF BRANCHED FATTY ACID” (KAO CORPORATION, priority 2019, published 2022).

Legend:
Format in all cases: cell-based
Micrococcus aloeverae [1] = test: Measurement of viable bacterial count on fabric; conditions: agent 250 μg/fabric g
Procedure: (§1) After culture on fabric prepared in the same manner as in the above (1), 9 mL of an LP diluent (manufactured by NIHON PHARMACEUTICAL CO., LTD.) was added, and the extraction of the bacteria was carried out under ultrasound for 10 minutes. The extraction liquid was poured and mixed to an SCD-LP agar medium (NIHON PHARMACEUTICAL CO., LTD.), and culture was thereafter carried out at 37° C.; for a day. The number of colonies obtained on each piece of the fabric was counted, and a common logarithm value thereof was measured as the viable bacterial count. […] In addition, the […], the more the viable bacterial count of the microorganism is maintained.
(§2) The metabolism of 14-methylhexadecanoic acid by bacteria of the genus Micrococcus was tested in the same manner as in example 1.
(§3) In this example, Micrococcus aloeverae (strain isolated from clothing) was used as a microorganism.
(§4) Further, in this example, a bacterial suspension of 10^7 (CFU/ml) prepared by using an SCD liquid medium (NIHON PHARMACEUTICAL CO., LTD.) diluted to 1/10 with ion exchange water was used as a bacterial suspension.
(§5) Note that, in this example, C12OH (1-dodecanol) was used as the metabolism controlling agent.

Micrococcus aloeverae [2] = test: Suppression of metabolism of 14-methylhexadecanoic acid on cotton fabric; conditions: agent 250 μg/fabric g
Procedure: A methanol solution in which 14-methylhexadecanoic acid (SIGMA-ALDRICH) was dissolved was added dropwise to 3 cm×3 cm pieces of sterilized plain-weave cotton fabric to make it adhered to the fabric. The adhesion amount of 14-methylhexadecanoic acid was set to 10 μg per piece of the plain-weave cotton fabric (100 μg/fabric g).
Further, a methanol solution in which each metabolism controlling agent was dissolved was prepared and added dropwise to the fabric to which 14-methylhexadecanoic acid adhered, and it was thereafter dried for an hour. This fabric was placed in a sterilized screw tube bottle No. 3 (Maruemu Corporation) and 100 μl of the bacterial suspension was inoculated thereto, and culture was carried out under 37° C.; conditions for 21 hours.
(§6) 3 ml of methanol was added to the screw tube bottle after culture, and extraction was carried out under ultrasonic irradiation for 30 minutes (20° C.). The extraction liquid was mixed with a (trimethylsilyl)diazomethane hexane solution (FUJIFILM Wako Pure Chemical Corporation) at 9:1 (volume ratio) and left overnight under room temperature and dark place conditions. After that, 14-methylhexadecanoic acid remaining on the fabric was quantified by GC. The quantification conditions for GC are as follows. • GC: Agilent 7890A • GC column: Agilent DB-1 30 m×250 μm×0.25 μm • Temperature rise condition: 50° C. (held for 3 minutes)-(10° C./min)-300° C. (held for 5 minutes) • Sample injection volume: 1 μl • Split ratio: 1:12 • Detector: FID
(§7) The residual amount of 14-methylhexadecanoic acid after culture on the fabric to which the metabolism controlling agent was added was quantified, and the ratio of the residual amount to that of 14-methylhexadecanoic acid in the case of adding no metabolism controlling agent (control) was calculated as a metabolism suppression rate (%). The higher a numerical value thereof is, the more the metabolism is suppressed. Note that the metabolism suppression rate was determined by the following formula:
Metabolism suppression rate(%)=[1−(100−A)/(100−B)]×100 • A: residual amount of 14-methylhexadecanoic acid of example or comparative example (μg/fabric g) • B: residual amount of 14-methylhexadecanoic acid of control (μg/fabric g)
as §2, §3, §4, §5

Micrococcus aloeverae [3] = test: Suppression of metabolite 2-methylbutanoic acid from 14-methylhexadecanoic acid; conditions: agent 250 μg/fabric g
Procedure: (§8) After culture on fabric prepared in the same manner as in the above (1), 3 ml of methanol was added, and extraction was carried out under ultrasonic irradiation for 30 minutes (20° C.). The extraction liquid was mixed with (a 1000 ppm methanol solution of) an ADAM reagent of Funakoshi Co., Ltd. at 1:1 (volume ratio) and left overnight under room temperature and dark place conditions. After that, 4-methyl-3-hexenoic acid as a metabolite from 14-methylhexadecanoic acid was quantified by HPLC. The quantification conditions are as follows.
(§9) The production amount of 4-methyl-3-hexenoic acid after culture on the fabric to which each metabolism controlling agent was added was quantified, and the ratio of the production amount to that of 4-methyl-3-hexenoic acid in the case of adding no metabolism controlling agent (control) was calculated as a metabolite suppression rate (%). The higher a numerical value thereof is, the more the metabolism is suppressed. Note that the metabolite suppression rate was determined by the following formula:
Metabolite suppression rate(%)=100×[(D−C)/D] • C: production amount of metabolite of example or comparative example (μg/fabric g) • D: production amount of metabolite of control (μg/fabric g)
as §2, §3, §4
Further, in this example, 2-methylbutanoic acid was quantified as a metabolite from 14-methylhexadecanoic acid, and the metabolite suppression rate was determined in the same manner as in example 1.
as §5

Moraxella osloensis [4] = test: Examination example: suppression of metabolism of 14-methylhexadecanoic acid, components (a) and (b)/(b′); conditions: for Metabolism of branched fatty acid: Residual amount (μg/fabric g): 14-methylhexadecanoic acid
Procedure: The suppression of metabolism of 14-methylhexadecanoic acid by bacteria of the genus Moraxella and the suppression of a metabolite therefrom were tested in the following manner.
Moraxella osloensis (strain isolated from clothing) was precultured on an SCD-LP agar medium (NIHON PHARMACEUTICAL CO., LTD.) at 37° C.; for 24 hours, and a bacterial suspension of 10^6 (CFU/ml) was prepared by using an NB liquid medium (Difco) diluted to 1/20 with ion exchange water.
A methanol solution in which 14-methylhexadecanoic acid (SIGMA-ALDRICH) was dissolved was added dropwise to 3 cm×3 cm pieces of sterilized plain-weave cotton fabric to make it adhered to the fabric. The adhesion amount of 14-methylhexadecanoic acid was set to 10 μg per piece of the plain-weave cotton fabric (100 μg/fabric g). Further, a methanol solution in which component (a) was dissolved, and then, a methanol solution in which component (b) or (b′) was dissolved were added dropwise to the fabric to which 14-methylhexadecanoic acid adhered, and it was thereafter dried for an hour. This fabric was placed in a sterilized screw tube bottle No. 3 (Maruemu Corporation) and 100 μl of the bacterial suspension was inoculated thereto, and culture was carried out under 37° C.; conditions for 21 hours.
as §6, with “6890N” for “7890A”
as §7, with “which each” for “which the”
Metabolism suppression rate(%)=[1−(100−A)/(100−B)]×100 • A: residual amount of 14-methylhexadecanoic acid of reference or examination example (μg/fabric g) • B: residual amount of 14-methylhexadecanoic acid of control (μg/fabric g)
A control is an example in which none of component (a), (b) or (b′) is added, and references 1-1, 2-1, 3-1 and 4-1 qualify as this (the same applies hereinafter). In these controls, the metabolism suppression rate is 0′.

Moraxella osloensis [5] = test: Examination example: measurement of viable bacterial count
Procedure: as §1

Moraxella osloensis [6] = test: Examination example: suppression of metabolite 4-methyl-3-hexenoic acid, components (a) and (b)/(b′)
Procedure: as §8
Eluent: acetonitrile 61% (v/v), water 39% (v/v) Column temperature: 40° C. Sample injection volume: 10 μL Flow rate: 1.0 mL/min
as §9, with “the” for “each”, “formula. In references 1-1, 2-1, 3-1 and 4-1, which are controls, the metabolite suppression rate is 0%.” for “formula:”
Metabolite suppression rate(%)=100×[(D−C)/D] • C: production amount of metabolite of reference or examination example (μg/fabric g) • D: production amount of metabolite of control (μg/fabric g)

CCCCCCCCCCCCOCCOCCOCCOCCOCCO [Example C12E5, pentaethylene glycol mono-1-dodecyl ether, reference compound]
Bacterial count (Log (cfu/fabric cm^2)) (Micrococcus aloeverae [1]): 6.6 Log (cfu/fabric cm^2)
Metabolism suppression rate (%) (Micrococcus aloeverae [2]): −3%
Metabolite suppression rate (%) (Micrococcus aloeverae [3]): 6%

N#CC(C#N)=NNc1cccc(Cl)c1 [CCCP, carbonylcyanide-m-chlorophenylhydrazone]
Metabolism of branched fatty acid: Residual amount (μg/fabric g) (Moraxella osloensis [4]; single agent 2 μg/fabric g): 44 μg/fabric g
Metabolism of branched fatty acid: Residual amount (μg/fabric g) (Moraxella osloensis [4]; single agent 5 μg/fabric g): 56 μg/fabric g
Metabolism of branched fatty acid: Metabolism suppression rate (%) (Moraxella osloensis [4]; single agent 2 μg/fabric g): 8%
Metabolism of branched fatty acid: Metabolism suppression rate (%) (Moraxella osloensis [4]; single agent 5 μg/fabric g): 28%
Viable bacterial count (Log (cfu/fabric cm^2)) (Moraxella osloensis [5]; single agent 2 μg/fabric g): 6.1 Log (cfu/fabric cm^2)
Viable bacterial count (Log (cfu/fabric cm^2)) (Moraxella osloensis [5]; single agent 5 μg/fabric g): 5.5 Log (cfu/fabric cm^2)
Product of metabolism of branched fatty acid: Metabolite suppression rate (%) (Moraxella osloensis [6]; single agent 2 μg/fabric g): 25%
Product of metabolism of branched fatty acid: Production amount (μg/fabric g) (Moraxella osloensis [6]; single agent 2 μg/fabric g): 3.3 μg/fabric g
Product of metabolism of branched fatty acid: Metabolite suppression rate (%) (Moraxella osloensis [6]; single agent 5 μg/fabric g): 36%
Product of metabolism of branched fatty acid: Production amount (μg/fabric g) (Moraxella osloensis [6]; single agent 5 μg/fabric g): 2.8 μg/fabric g

Oc1cc(Cl)ccc1Oc1ccc(Cl)cc1 [Diclosan, 4-4′-dichloro-2-hydroxydiphenyl ether]
Metabolism of branched fatty acid: Residual amount (μg/fabric g) (Moraxella osloensis [4]; single agent 1 μg/fabric g): 43 μg/fabric g
Metabolism of branched fatty acid: Residual amount (μg/fabric g) (Moraxella osloensis [4]; single agent 2 μg/fabric g): 46 μg/fabric g
Metabolism of branched fatty acid: Residual amount (μg/fabric g) (Moraxella osloensis [4]; single agent 5 μg/fabric g): 56 μg/fabric g
Metabolism of branched fatty acid: Metabolism suppression rate (%) (Moraxella osloensis [4]; single agent 1 μg/fabric g): 7%
Metabolism of branched fatty acid: Metabolism suppression rate (%) (Moraxella osloensis [4]; single agent 2 μg/fabric g): 11%
Metabolism of branched fatty acid: Metabolism suppression rate (%) (Moraxella osloensis [4]; single agent 5 μg/fabric g): 27%
Viable bacterial count (Log (cfu/fabric cm^2)) (Moraxella osloensis [5]; single agent 1 μg/fabric g): 6.2 Log (cfu/fabric cm^2)
Viable bacterial count (Log (cfu/fabric cm^2)) (Moraxella osloensis [5]; single agent 2 μg/fabric g): 6.0 Log (cfu/fabric cm^2)
Viable bacterial count (Log (cfu/fabric cm^2)) (Moraxella osloensis [5]; single agent 5 μg/fabric g): 5.1 Log (cfu/fabric cm^2)
Product of metabolism of branched fatty acid: Metabolite suppression rate (%) (Moraxella osloensis [6]; single agent 1 μg/fabric g): 5%
Product of metabolism of branched fatty acid: Production amount (μg/fabric g) (Moraxella osloensis [6]; single agent 1 μg/fabric g): 4.2 μg/fabric g
Product of metabolism of branched fatty acid: Metabolite suppression rate (%) (Moraxella osloensis [6]; single agent 2 μg/fabric g): 14%
Product of metabolism of branched fatty acid: Production amount (μg/fabric g) (Moraxella osloensis [6]; single agent 2 μg/fabric g): 3.8 μg/fabric g
Product of metabolism of branched fatty acid: Metabolite suppression rate (%) (Moraxella osloensis [6]; single agent 5 μg/fabric g): 41%
Product of metabolism of branched fatty acid: Production amount (μg/fabric g) (Moraxella osloensis [6]; single agent 5 μg/fabric g): 2.6 μg/fabric g

Oc1cc(Cl)ccc1Oc1ccc(Cl)cc1Cl [Triclosan, 2,4,4′-trichloro-2′-hydroxydiphenyl ether]
Metabolism of branched fatty acid: Residual amount (μg/fabric g) (Moraxella osloensis [4]; single agent 0.5 μg/fabric g): 43 μg/fabric g
Metabolism of branched fatty acid: Residual amount (μg/fabric g) (Moraxella osloensis [4]; single agent 1 μg/fabric g): 38 μg/fabric g
Metabolism of branched fatty acid: Residual amount (μg/fabric g) (Moraxella osloensis [4]; single agent 2 μg/fabric g): 44 μg/fabric g
Metabolism of branched fatty acid: Metabolism suppression rate (%) (Moraxella osloensis [4]; single agent 0.5 μg/fabric g): 6%
Metabolism of branched fatty acid: Metabolism suppression rate (%) (Moraxella osloensis [4]; single agent 1 μg/fabric g): −2%
Metabolism of branched fatty acid: Metabolism suppression rate (%) (Moraxella osloensis [4]; single agent 2 μg/fabric g): 8%
Viable bacterial count (Log (cfu/fabric cm^2)) (Moraxella osloensis [5]; single agent 0.5 μg/fabric g): 6.2 Log (cfu/fabric cm^2)
Viable bacterial count (Log (cfu/fabric cm^2)) (Moraxella osloensis [5]; single agent 1 μg/fabric g): 6.2 Log (cfu/fabric cm^2)
Viable bacterial count (Log (cfu/fabric cm^2)) (Moraxella osloensis [5]; single agent 2 μg/fabric g): 6.0 Log (cfu/fabric cm^2)
Product of metabolism of branched fatty acid: Metabolite suppression rate (%) (Moraxella osloensis [6]; single agent 1 μg/fabric g): 5%
Product of metabolism of branched fatty acid: Production amount (μg/fabric g) (Moraxella osloensis [6]; single agent 1 μg/fabric g): 4.2 μg/fabric g
Product of metabolism of branched fatty acid: Metabolite suppression rate (%) (Moraxella osloensis [6]; single agent 2 μg/fabric g): 7%
Product of metabolism of branched fatty acid: Production amount (μg/fabric g) (Moraxella osloensis [6]; single agent 2 μg/fabric g): 4.1 μg/fabric g

C/C=C/C/C=C/CCC(=O)[C@H]1O[C@H]1C(N)=O [Cerulenin, [2R,3S]-2,3-epoxy-4-oxo-7,10-trans,trans-dodecanoic acid amide]
Metabolism of branched fatty acid: Residual amount (μg/fabric g) (Moraxella osloensis [4]; single agent 5 μg/fabric g): 39 μg/fabric g
Metabolism of branched fatty acid: Residual amount (μg/fabric g) (Moraxella osloensis [4]; single agent 10 μg/fabric g): 41 μg/fabric g
Metabolism of branched fatty acid: Residual amount (μg/fabric g) (Moraxella osloensis [4]; single agent 20 μg/fabric g): 48 μg/fabric g
Metabolism of branched fatty acid: Metabolism suppression rate (%) (Moraxella osloensis [4]; single agent 5 μg/fabric g): 0%
Metabolism of branched fatty acid: Metabolism suppression rate (%) (Moraxella osloensis [4]; single agent 10 μg/fabric g): 3%
Metabolism of branched fatty acid: Metabolism suppression rate (%) (Moraxella osloensis [4]; single agent 20 μg/fabric g): 15%
Viable bacterial count (Log (cfu/fabric cm^2)) (Moraxella osloensis [5]; single agent 5 μg/fabric g): 6.1 Log (cfu/fabric cm^2)
Viable bacterial count (Log (cfu/fabric cm^2)) (Moraxella osloensis [5]; single agent 10 μg/fabric g): 6.3 Log (cfu/fabric cm^2)
Viable bacterial count (Log (cfu/fabric cm^2)) (Moraxella osloensis [5]; single agent 20 μg/fabric g): 6.3 Log (cfu/fabric cm^2)
Product of metabolism of branched fatty acid: Metabolite suppression rate (%) (Moraxella osloensis [6]; single agent 5 μg/fabric g): 2%
Product of metabolism of branched fatty acid: Production amount (μg/fabric g) (Moraxella osloensis [6]; single agent 5 μg/fabric g): 4.3 μg/fabric g
Product of metabolism of branched fatty acid: Metabolite suppression rate (%) (Moraxella osloensis [6]; single agent 10 μg/fabric g): 9%
Product of metabolism of branched fatty acid: Production amount (μg/fabric g) (Moraxella osloensis [6]; single agent 10 μg/fabric g): 4.0 μg/fabric g
Product of metabolism of branched fatty acid: Metabolite suppression rate (%) (Moraxella osloensis [6]; single agent 20 μg/fabric g): 11%
Product of metabolism of branched fatty acid: Production amount (μg/fabric g) (Moraxella osloensis [6]; single agent 20 μg/fabric g): 3.9 μg/fabric g
